A short description of series [1]: DPPH free radical scavenging assay (in vitro antioxidant activity). Particulars: DPPH in methanol, 30 min in the dark at 25 °C, absorbance 517 nm. An excerpt:
To determine the antioxidant activities, the 2,2-Diphenyl-1-picrylhydrazyl (DPPH) was used, which is considered one of the most widely used methods for measuring the in vitro antioxidant activity of various chemical compounds. This colorimetric method is accurate, easy to perform, and economical, providing a screening of the general activity of the antioxidants and is based on a stable and synthetic radical, DPPH[15].
When DPPH reacts with an antioxidant compound, its free radical property is lost and its color changes from violet to yellow. The decrease in absorbance at 517 nm induced by antioxidants determines the reduction ability of DPPH.
The free DPPH radical scavenging assay was used to measure the antioxidant activity of the isoxazole derivatives. A 1000 μg/ml stock solution of each compound was prepared in methanol. In addition, a 1000 μg/ml solution of Trolox was also prepared (the reference standard). […] Optical densities were then measured with a spectrophotometer at a wavelength of 517 nm. The following equation was used to calculate % DPPH inhibition for each compound, with Trolox as the standard compound: DPPHinhibition%=AB-Ats/AB×100% where, AB is the recorded absorbance of the blank solution, and Ats is the recorded absorbance of the tested sample solution[25].
For orientation: Loss of DPPH colour is used to gauge radical scavenging.

Series [2] deals with T1, porcine pancreatic lipase (Sus scrofa, UniProt P00591).
T1 construct: purchased Alfa Aesar, Sigma-Aldrich, and Frutarom (UK)
T1 sequence (P00591 1-450): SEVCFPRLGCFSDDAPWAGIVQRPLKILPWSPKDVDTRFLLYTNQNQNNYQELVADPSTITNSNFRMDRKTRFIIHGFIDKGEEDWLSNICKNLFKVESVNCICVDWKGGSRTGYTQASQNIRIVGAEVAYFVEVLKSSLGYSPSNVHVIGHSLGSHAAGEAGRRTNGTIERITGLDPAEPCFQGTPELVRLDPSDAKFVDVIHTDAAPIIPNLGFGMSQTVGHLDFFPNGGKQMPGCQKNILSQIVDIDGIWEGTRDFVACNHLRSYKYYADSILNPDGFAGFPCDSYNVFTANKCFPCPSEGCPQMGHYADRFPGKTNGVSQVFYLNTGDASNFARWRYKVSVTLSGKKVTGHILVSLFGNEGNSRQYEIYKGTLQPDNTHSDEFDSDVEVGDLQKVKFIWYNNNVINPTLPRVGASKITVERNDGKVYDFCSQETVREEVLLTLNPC
Description: Porcine pancreatic lipase inhibition assay. The format is biochemical. Particulars: substrate p-nitrophenyl butyrate, 37 °C, 410 nm; highest concentration 400 µg/ml.
Description: Stock solutions of 500 µg/ml were made from each compound in 10% DMSO. From these, a dilution series of five concentrations of 50, 100, 200, 300, and 400 μg/ml were made. A 1 mg/ml stock solution of porcine pancreatic lipase in Tris–HCl buffer was prepared freshly just before use. The substrate, p-nitrophenyl butyrate (PNPB) was prepared by dissolving 20.9 mg in 2 ml acetonitrile. For each working solution, 0.1 ml porcine pancreatic lipase was mixed with 0.2 ml of compound solution from each member of the dilution series. Tris–HCl was added to make the final volume of the working solutions 1 ml, and they were incubated at 37 °C for 15 min. After incubation, 0.1 ml p-nitrophenyl butyrate solution was added to each test tube. The mixture was then incubated for a further 30 min at 37 °C. Pancreatic lipase activity was determined by measuring the hydrolysis of PNPB into p-nitrophenolate at 410 nm, using a UV spectrophotometer. […] Percentage lipase inhibition by compound dilution was calculated with the following equation: Lipaseinhibition%=AB-Ats/AB×100% where, AB is the recorded absorbance of the blank solution, and Ats is the recorded absorbance of the tested sample solution[31].

For series [3], the target named is T2, porcine pancreatic α-amylase (Sus scrofa, UniProt P00690).
T2 construct: purchased Alfa Aesar, Sigma-Aldrich, and Frutarom (UK)
T2 sequence (P00690 16-511): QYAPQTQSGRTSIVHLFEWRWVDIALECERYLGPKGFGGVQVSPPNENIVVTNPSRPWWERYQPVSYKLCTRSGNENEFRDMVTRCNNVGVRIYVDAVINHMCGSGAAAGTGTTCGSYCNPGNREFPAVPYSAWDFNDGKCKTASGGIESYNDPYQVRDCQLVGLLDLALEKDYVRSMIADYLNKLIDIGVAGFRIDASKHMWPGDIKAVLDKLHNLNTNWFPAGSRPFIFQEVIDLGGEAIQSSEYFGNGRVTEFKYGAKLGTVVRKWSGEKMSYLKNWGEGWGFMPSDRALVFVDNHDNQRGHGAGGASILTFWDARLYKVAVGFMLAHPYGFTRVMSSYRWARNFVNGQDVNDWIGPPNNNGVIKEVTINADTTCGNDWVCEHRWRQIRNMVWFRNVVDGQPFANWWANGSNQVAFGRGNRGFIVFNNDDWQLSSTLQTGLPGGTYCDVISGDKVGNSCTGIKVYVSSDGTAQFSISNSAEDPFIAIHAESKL
Description: α-Amylase inhibitory assay. Format: biochemical.
Description: A 5 mg of each fraction was dissolved in a few milliliters of 10% DMSO, and then further dissolved up to 100 ml in 0.02 M Na2HPO4/NaH2PO4, 0.006 M NaCl, pH 6.9 to give finally stock solutions with concentrations of 1000 μg/ml. From these, the following dilutions were prepared of 10, 50, 70, 100, and 500 μg/ml, using 10% DMSO as the diluent. A 0.2 ml volume of 2 units/ml porcine pancreatic α-amylase was mixed with 0.2 ml compounds dilution and was incubated for 10 min at 30 °C. After incubation, 0.2 ml of a freshly prepared 1% starch solution in water was added, and the tubes were then incubated for at least three more minutes. At this point, the reaction was stopped by the addition of 0.2 ml 3,5-dinitro salicylic acid (DNSA) color reagent and was diluted with 5 ml of distilled water, before being heated at 90 °C for 10 min in a water bath. The mixture was then cooled to room temperature, and the absorbance was measured at 540 nm. The blank control was prepared using the same quantities described above, but replacing the compound solution with 0.2 ml buffer.

In series [4] the test system is total antioxidant capacity (TAC) in the blood of mice. In words: In vivo total antioxidant capacity (TAC) in mice, Abcam ab65329 kit. Particulars: for TAC (Trolox equivalents): plasma. As for the experimental part: For this purpose, the TAC was determined using a commercially available assay kit (Abcam ab65329), in four groups of mice: 2a treated (5 mg/kg over 6 days, n = 5), 2a treated (10 mg/kg over 6 days, n = 5), quercetin treated (positive control; 10 mg/kg over 6 days, n = 5), and vehicle-treated (negative control; n = 5). All mice were sacrificed seven days after the treatment (or the first administration of the vehicle).
The absorbance values of the used kit were plotted against a serial concentration of Trolox standards in the concentration range of (4–20 nM). […] The generated regression line equation was utilized to calculate the Trolox equivalent total antioxidant activity of the injected compound and positive quercetin control of the experimental mice. The average results of the total antioxidant activity of ten replicates of plasma samples were reported. […] The summary of the results is shown in (Fig. 6).
Twenty mice were divided into four groups randomly, with five mice in each. The first group was administered with our novel compound 2a (5 mg/kg), the second group with the same compound (10 mg/kg), the third group with Quercetin (10 mg/kg) as a positive control, and the fourth group with normal saline (20%) and propylene glycol 80% as a negative control group.
To test the TAC of the novel compound, four groups of mice were injected intraperitoneal (i.p.) and employed with vehicle (80% polyethylene glycol (PG) and 20% normal saline (NS) for 6 days. The first and second groups were injected with 5 and 10 mg/kg/day of 2a compound dissolved in the same vehicle, respectively. The third group was injected with a known antioxidant agent positive control (Quercetin), with 10 mg/kg/day, and the last group was the negative control group (80% polyethylene glycol (PG) and 20% Normal saline (NS). All mice were anesthetized with ketamine (60 mg/kg) and xylazine (5 mg/kg) and sacrificed 24 h after the final injection. Then, the mouse blood sample was collected and centrifuged to collect serum. For long-term stability, serum was frozen at − 20 °C[27],[28].
All mice were sacrificed after seven days of treatment by placing each mouse in a plexiglass chamber with 5% of isoflurane anesthetic drug, for 5 min, and then when the mouse was fully sedated, they were sacrificed by rapid decapitation. Trunk blood was collected in EDTA-coated tubes for use in the kit assay[29],[30].
Using DPPH assay that basis on measures the total antioxidant capacity (TAC) of compounds that can transfer hydrogen atoms. […] Antioxidant compounds, which can transfer an electron to DMPD• + , cause a discoloration of the solution. […] The reduced Cu + ion is chelated with a colorimetric probe giving a broad absorbance peak around 570 nm, proportional to the total antioxidant capacity. […]

Series [5] is described as follows: Water solubility. Particulars: can be dissolved with propylene glycol. Format: physicochemical.
The subject of series [6] is Hep3B. More on the design: method as in doi:10.1515/chem-2021-0078. Particulars: Hep3B cancer cell line; cited from earlier work.
On the set-up of series [7]: method as in PMID 33763478. Particulars: similar isoxazole series, earlier report; cited from earlier work.

Molecules are shown by their SMILES. pIC50: −log10 of the molar value. In brackets after ≈: the same amount, converted by molar mass. Where two headings read alike, the source gives them in different places. Marks after values point to notes of the source that are not given here. Some results are limits rather than exact numbers.

Broadly, the pIC50 is −log10 of the IC50, conventionally taken in molar units. A lower pIC50 goes with a large IC50. As for `Cc1onc(-c2ccc(F)cc2)c1C(=O)Nc1ccc(C(C)(C)C)cc1` [2a, N-(4-(tert-butyl)phenyl)-3-(4-fluorophenyl)-5-methylisoxazole-4-carboxamide], the “IC50 DPPH” value in series [1] is 0.45 ± 0.21 µg/mL (≈ 1.28 µM). Besides, the pIC50 is under 2.94 in series [2] and under 2.85 in series [3] (starch substrate, DNSA, 540 nm, highest concentration 500 µg/ml). In addition, the “TAC (Trolox equivalents)” value in series [4] (5 mg/kg i.p. over 6 days) is listed as 640.2 nmol L–1; in series [4] (10 mg/kg i.p. over 6 days) it was 682.9 nmol L–1. Also, the “TAC relative to mice treated with the positive control Quercetin” value in series [4] (i.p.) is reported as “two folds greater”. In addition, the water solubility result in series [5] was “low water solubility”. Also, in series [6], the “IC50 against Hep3B” value was 9.58 mg/L (≈ 27.2 µM).
Usually inhibition stands for the share of the control response that was lost under treatment. For the compound `C[C@H]1O[C@H](O[C@H]2[C@H](O)[C@@H](O)[C@@H](O[C@H]3[C@H](O)[C@@H](O)C(O)O[C@@H]3CO)O[C@@H]2CO)[C@H](O)[C@@H](O)[C@@H]1N[C@H]1C=C(CO)[C@@H](O)[C@H](O)[C@H]1O` (stereo partly drawn) [Acarbose, reference compound], in series [3] (read-out: percentage of inhibition of α-amylase), the inhibition at 500 µg/mL is 72.5%.
As to `Cc1onc(-c2ccccc2Cl)c1C(=O)Nc1ccc(C(C)(C)C)cc1` [N-(4-(tert-butyl)phenyl)-3-(2-chlorophenyl)-5-methylisoxazole-4-carboxamide], the “IC50 DPPH” value in series [7] was 7.8 mg/L (≈ 21.1 µM).
For the compound `O=c1c(O)c(-c2ccc(O)c(O)c2)oc2cc(O)cc(O)c12` [Quercetin, reference compound], in series [4] (10 mg/kg i.p. over 6 days), the “TAC (Trolox equivalents)” value came out at 221.0 nmol L–1.
Turning to `Cc1c(C)c2c(c(C)c1O)CCC(C)(C(=O)O)O2` (stereo not drawn) [Trolox, reference compound], in series [1], the “IC50 DPPH” value is listed as 3.10 ± 0.92^a µg/ml.

Source of the values: publication PMC9617852, “In vitro and in vivo assessment of the antioxidant potential of isoxazole derivatives” (Scientific Reports, 2022).
